For this test, the target named is T1, menin-MLL interaction (Homo sapiens, UniProt O00255).
T1 sequence (O00255 1-610): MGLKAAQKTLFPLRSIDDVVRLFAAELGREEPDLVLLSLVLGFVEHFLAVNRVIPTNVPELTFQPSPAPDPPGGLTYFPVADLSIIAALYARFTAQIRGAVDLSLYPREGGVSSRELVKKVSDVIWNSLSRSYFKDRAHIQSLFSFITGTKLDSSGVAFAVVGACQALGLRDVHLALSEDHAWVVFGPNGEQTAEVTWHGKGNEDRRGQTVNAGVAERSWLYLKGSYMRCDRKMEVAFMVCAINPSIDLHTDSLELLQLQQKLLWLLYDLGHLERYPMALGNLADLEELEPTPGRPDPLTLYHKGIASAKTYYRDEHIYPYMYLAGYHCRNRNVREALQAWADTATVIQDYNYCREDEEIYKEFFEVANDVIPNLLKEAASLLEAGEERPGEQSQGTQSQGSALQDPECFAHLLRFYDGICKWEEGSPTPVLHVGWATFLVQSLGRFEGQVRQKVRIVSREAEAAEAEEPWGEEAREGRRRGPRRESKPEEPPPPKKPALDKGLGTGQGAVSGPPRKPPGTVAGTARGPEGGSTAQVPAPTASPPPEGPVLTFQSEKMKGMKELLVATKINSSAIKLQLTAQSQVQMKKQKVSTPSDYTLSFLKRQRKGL
Briefly: biochemical.

SMILES strings stand for the structures. pIC50: −log10 of the molar value. A value given as a limit tells only on which side of the number the result lay.

Description: Compounds that inhibit the interaction decrease the fluorescence anisotropy which is being used as a read-out for compound screening and for IC50 determination.

As for `N#Cc1cc2ccc(CN3CCC(Nc4ncnc5sc(CC(F)(F)F)cc45)CC3)cc2[nH]1` [Compound 229], the pIC50 (usually −log10 of the IC50, conventionally taken in molar units) is 6.30 to 7.00. For `N#Cc1cc2cc(CN3CCC(Nc4ncnc5sc(CC(F)(F)F)cc45)C(NC[C@H]4CCCN4C=O)C3)ccc2[nH]1` (some centres unmarked) [Compound 161] the value was above 7.00; for `N#Cc1cc2c(C=O)c(CN3CCC(Nc4ncnc5sc(CC(F)(F)F)cc45)CC3)ccc2n1Cc1cn[nH]c1` [Compound 352], above 7.00. To `N#Cc1cc2c(F)c(CN3CCC(Nc4ncnc5sc(CC(F)(F)F)cc45)CC3)ccc2[nH]1` [Compound 184] belongs above 7.00; to `FC(F)(F)Cc1cc2c(NC3CCN(Cc4ccccc4Cl)CC3)ncnc2s1` [Compound 119], 6.30 to 7.00. For `Cc1cc(CN2CCC(Nc3ncnc4sc(CC(F)(F)F)cc34)CC2)cc2cc(C#N)[nH]c12` [Compound 410] the value was 6.30 to 7.00.

Consider `N#Cc1nc2ccc(CN3CCC(Nc4ncnc5sc(CC(F)(F)F)cc45)CC3)cc2o1` [Compound 248], for which the negative logarithm of the IC50 (pIC50) was 5.70 to 6.30. To `N#Cc1cc2cc(CN3CCC(Nc4ncnc5sc(CC(F)(F)F)cc45)CC3)ccc2n1Cc1nc[nH]n1` [Compound 204] belongs above 7.00; to `CCCCC(O)(CO)Cn1c(C#N)cc2cc(CN3CCC(Nc4ncnc5sc(CC(F)(F)F)cc45)CC3)ccc21` (centres unmarked) [Compound 308], above 7.00. For `CS(=O)(=O)N(CC(F)(F)F)c1ccc(CC(=O)N2CCN(c3ncnc4sc(CC(F)(F)F)cc34)CC2)cc1` [Compound 85] the value was 6.30 to 7.00; for `N#Cc1ccc2c(CN3CCC(Nc4ncnc5sc(CC(F)(F)F)cc45)CC3)c[nH]c2c1` [Compound 206], above 7.00. To `Cc1c(CN2CCC(Nc3ncnc4sc(CC(F)(F)F)cc34)CC2)ccc2c1cc(C#N)n2Cc1cc(Cc2ccncc2)[nH]n1` [Compound 345] belongs above 7.00; to `N#Cc1cc2cc(CN3CCC(Nc4ncnc5sc(CC(F)(F)F)cc45)CC3)ccc2n1Cc1cnn(CCOCC2CC2)c1` [Compound 318], above 7.00; to `FC(F)(F)Cc1cc2c(NCC3CCN(Cc4ccc(Cl)cc4Cl)CC3)ncnc2s1` [Compound 254], 6.30 to 7.00. Take `OCCNN(c1ncnc2sc(CC(F)(F)F)cc12)C1CCN(Cc2ccccc2)CC1` [Compound 125]: the pIC50 was 6.30 to 7.00. Turning to `CC1(C)CN=C(C2C[C@@H]3C[C@H]2CN3c2ncnc3sc(CC(F)(F)F)cc23)S1` (mixture of isomers) [Compound 14], the negative-log IC50 (pIC50) is 6.30 to 7.00. As for `COCCOCCOC(CO)Cn1c(C#N)cc2cc(CN3CCC(Nc4ncnc5sc(CC(F)(F)F)cc45)CC3)ccc21` (centres unmarked) [Compound 319], the negative logarithm of the IC50 (pIC50) is above 7.00. For `COc1cc2c(cc(C#N)n2Cc2c[nH]nn2)c(C)c1CN1CCC(Nc2ncnc3sc(CC(F)(F)F)cc23)CC1` [Compound 392] the value was above 7.00; for `CC(=O)c1ccc(CN2CCC(CNc3ncnc4sc(CC(F)(F)F)cc34)CC2)cc1` [Compound 270], 5.70 to 6.30. With `Cc1c(CN2CCC(Nc3ncnc4sc(CC(F)(F)F)cc34)CC2)ccc2c1cc(C#N)n2CCN1CCN(C(=O)N(C)C)CC1` [Compound 376], the pIC50 was above 7.00.

Turning to `FC(F)(F)Cc1cc2c(N[C@H]3CCN(Cc4ccccc4)C[C@@H]3NCC3CCCC3)ncnc2s1` [Compound 169], the pIC50 was 6.30 to 7.00. To `N#Cc1cc2cc(CN3CCC(Nc4ncnc5sc(CC(F)(F)F)cc45)CC3)ccc2n1N` [Compound 230] belongs 6.30 to 7.00; to `NS(=O)(=O)Nc1ccc(CC(=O)N2CCN(c3ncnc4sc(CC(F)(F)F)cc34)CC2)cc1` [Compound 47], above 7.00; to `N#Cc1cc2cc(CN3CCC(Nc4ncnc5sc(CC(F)(F)F)cc45)CC3)ccc2n1CCC(N)=O` [Compound 194], above 7.00. For the compound `CCOc1cc2[nH]c(C#N)cc2cc1CN1CCC(Nc2ncnc3sc(CC(F)(F)F)cc23)CC1` [Compound 215], the pIC50 was above 7.00. To `Cc1c(CN2CCC(Nc3ncnc4sc(CC(F)(F)F)cc34)CC2)ccc2c1cc(C#N)n2CCN1CCN[C@@H](C)C1` [Compound 367] belongs above 7.00.

The record behind these values is patent publication US9505781B2, “Compositions comprising thienopyrimidine and thienopyridine compounds and methods of use thereof” (The Regents of the University of Michigan, priority 2013, dated 2016).
